Assay results: PubChem BioAssay AID248 (DTP/NCI, 2004)
Values joined by “and” are separate entries in the source; they are usually repeats but may differ in a detail not shown here. Equal entries are not always repeated. Inconclusive results and toxic doses are left out. No stated cut-off is given here; in the data, active means T/C of 150% or more; inactive means T/C below 125%.

Tested on: L1210 leukemia ip in BDF1 mice, survival T/C
Experiment: NCI In Vivo Anticancer Drug Screen. Data for tumor model L1210 Leukemia (intraperitoneal) in B6D2F1 (BDF1) mice
Conditions: endpoint: mean survival time, higher = longer survival
Outline: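 Antitumor effect is assessed in tumor-bearing animals. Survival in the compound arm is compared with a vehicle-dosed control arm and expressed as their quotient.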

[1] = dose: 100.0 mg/kg/injection, schedule: Q04DX003 (ip), vehicle: saline
[2] = dose: 200.0 mg/kg/injection, schedule: Q04DX003 (ip), vehicle: saline
[3] = dose: 50.0 mg/kg/injection, schedule: Q01DX009 (ip), vehicle: saline with Tween-80
[4] = dose: 100.0 mg/kg/injection, schedule: Q01DX009 (ip), vehicle: saline with Tween-80
[5] = dose: 100.0 mg/kg/injection, schedule: Q01DX009 (ip), vehicle: Klucel (hydroxypropylcellulose) (HPC)
[6] = dose: 100.0 mg/kg/injection, schedule: Q04DX003 (ip), vehicle: Klucel (hydroxypropylcellulose) (HPC)
[7] = dose: 200.0 mg/kg/injection, schedule: Q01DX009 (ip), vehicle: Klucel (hydroxypropylcellulose) (HPC)
[8] = dose: 200.0 mg/kg/injection, schedule: Q04DX003 (ip), vehicle: Klucel (hydroxypropylcellulose) (HPC)
[9] = dose: 400.0 mg/kg/injection, schedule: Q01DX009 (ip), vehicle: Klucel (hydroxypropylcellulose) (HPC)
[10] = dose: 400.0 mg/kg/injection, schedule: Q04DX003 (ip), vehicle: Klucel (hydroxypropylcellulose) (HPC)
[11] = dose: 100.0 mg/kg/injection, schedule: Q01DX001 (ip), vehicle: saline
[12] = dose: 100.0 mg/kg/injection, schedule: Q04DX003 (ip), vehicle: saline with Tween-80
[13] = dose: 200.0 mg/kg/injection, schedule: Q01DX001 (ip), vehicle: saline
[14] = dose: 200.0 mg/kg/injection, schedule: Q04DX003 (ip), vehicle: saline with Tween-80

Measured: T/C

O=C1c2cc(O)c(O)cc2O[C@H](c2ccc(O)c(O)c2)[C@H]1O
inactive: [1] 106 % of control | [2] 100 % of control | dose: 400.0 mg/kg/injection, schedule: Q04DX003 (ip), vehicle: saline 104 % of control

CCOC(=O)c1ccc(NC(=O)c2ccc(F)cc2)cc1
inactive: dose: 100.0 mg/kg/injection, schedule: Q01DX001 (ip), vehicle: carboxymethylcellulose (CMC) 97 % of control and 105 % of control | dose: 100.0 mg/kg/injection, schedule: Q01DX009 (ip), vehicle: carboxymethylcellulose (CMC) 103 % of control and 105 % of control | dose: 100.0 mg/kg/injection, schedule: Q04DX002 (ip), vehicle: carboxymethylcellulose (CMC) 96 % of control and 97 % of control | dose: 100.0 mg/kg/injection, schedule: Q04DX003 (ip), vehicle: carboxymethylcellulose (CMC) 94 % of control and 98 % of control | dose: 200.0 mg/kg/injection, schedule: Q01DX001 (ip), vehicle: carboxymethylcellulose (CMC) 101 % of control and 91 % of control | dose: 200.0 mg/kg/injection, schedule: Q01DX009 (ip), vehicle: carboxymethylcellulose (CMC) 94 % of control and 91 % of control | dose: 200.0 mg/kg/injection, schedule: Q04DX002 (ip), vehicle: carboxymethylcellulose (CMC) 97 % of control and 100 % of control | dose: 200.0 mg/kg/injection, schedule: Q04DX003 (ip), vehicle: carboxymethylcellulose (CMC) 95 % of control and 91 % of control | dose: 400.0 mg/kg/injection, schedule: Q01DX001 (ip), vehicle: carboxymethylcellulose (CMC) 96 % of control and 90 % of control | dose: 400.0 mg/kg/injection, schedule: Q01DX009 (ip), vehicle: carboxymethylcellulose (CMC) 93 % of control and 106 % of control | dose: 400.0 mg/kg/injection, schedule: Q04DX002 (ip), vehicle: carboxymethylcellulose (CMC) 92 % of control and 90 % of control | dose: 400.0 mg/kg/injection, schedule: Q04DX003 (ip), vehicle: carboxymethylcellulose (CMC) 100 % of control and 91 % of control

c1ccc([CH2][Pb]([c]2ccccc2)([c]2ccccc2)[c]2ccccc2)cc1
inactive: dose: 25.0 mg/kg/injection, schedule: Q01DX009 (ip), vehicle: saline with Tween-80 93 % of control | [3] 94 % of control | [4] 96 % of control | dose: 200.0 mg/kg/injection, schedule: Q01DX001 (ip), vehicle: saline with Tween-80 108 % of control | dose: 400.0 mg/kg/injection, schedule: Q01DX001 (ip), vehicle: saline with Tween-80 97 % of control

[Cl][Rh][Cl].[NH-]c1nccs1.[NH-]c1nccs1.[NH-]c1nccs1.[NH-]c1nccs1
inactive: dose: 3.13 mg/kg/injection, schedule: Q04DX003 (ip), vehicle: distilled water + Tween-80 103 % of control | dose: 6.25 mg/kg/injection, schedule: Q04DX003 (ip), vehicle: distilled water + Tween-80 96 % of control | dose: 12.5 mg/kg/injection, schedule: Q04DX003 (ip), vehicle: distilled water + Tween-80 97 % of control | dose: 25.0 mg/kg/injection, schedule: Q04DX003 (ip), vehicle: distilled water + Tween-80 96 % of control | dose: 50.0 mg/kg/injection, schedule: Q04DX003 (ip), vehicle: distilled water + Tween-80 103 % of control | dose: 100.0 mg/kg/injection, schedule: Q04DX003 (ip), vehicle: distilled water + Tween-80 102 % of control | dose: 200.0 mg/kg/injection, schedule: Q04DX003 (ip), vehicle: distilled water + Tween-80 103 % of control

COC(=O)c1ccccc1N=NNc1ccccc1-c1nc(N)nc(N)n1
inactive: [5] 95 % of control | [6] 103 % of control | [7] 104 % of control | [8] 106 % of control | [9] 98 % of control | [10] 95 % of control

CCCCCCCC/C=C\CCCCCCCC(=O)N1CC[N+](C)(C)CC1
inactive: dose: 5.0 mg/kg/injection, schedule: Q01DX001 (ip), vehicle: saline 96 % of control | dose: 10.0 mg/kg/injection, schedule: Q01DX001 (ip), vehicle: saline 104 % of control | dose: 20.0 mg/kg/injection, schedule: Q01DX001 (ip), vehicle: saline 93 % of control | dose: 40.0 mg/kg/injection, schedule: Q01DX001 (ip), vehicle: saline 93 % of control

CC(C(c1ccccc1)c1ccc(Cl)cc1)[N+](=O)[O-] (stereo not drawn)
inactive: dose: 22.0 mg/kg/injection, schedule: Q01DX009 (ip), vehicle: saline with Tween-80 102 % of control | dose: 33.0 mg/kg/injection, schedule: Q01DX009 (ip), vehicle: saline with Tween-80 96 % of control | [3] 94 % of control | dose: 75.0 mg/kg/injection, schedule: Q01DX009 (ip), vehicle: saline with Tween-80 112 % of control | [11] 87 % of control | [4] 103 % of control | [12] 95 % of control | [1] 102 % of control | [13] 95 % of control | [14] 102 % of control | [2] 89 % of control | dose: 400.0 mg/kg/injection, schedule: Q01DX001 (ip), vehicle: saline 88 % of control

O=C(OCCCCOC(=O)c1cccc([N+](=O)[O-])c1)c1cccc([N+](=O)[O-])c1
inactive: dose: 3.12 mg/kg/injection, schedule: Q01DX009 (ip), vehicle: saline with Tween-80 95 % of control | dose: 6.25 mg/kg/injection, schedule: Q01DX009 (ip), vehicle: saline with Tween-80 100 % of control | dose: 12.5 mg/kg/injection, schedule: Q01DX009 (ip), vehicle: saline with Tween-80 97 % of control | dose: 100.0 mg/kg/injection, schedule: Q01DX001 (ip), vehicle: other 102 % of control | dose: 200.0 mg/kg/injection, schedule: Q01DX001 (ip), vehicle: other 95 % of control | dose: 400.0 mg/kg/injection, schedule: Q01DX001 (ip), vehicle: other 93 % of control

OCC12COC(c3ccccc3)N1C(c1ccccc1)OC2 (stereo not drawn)
inactive: [5] 102 % of control | [6] 102 % of control | [7] 102 % of control | [8] 102 % of control | [9] 97 % of control | [10] 100 % of control

CCCCCCC(=O)CCCC(C)CCCC(C)C (stereo not drawn)
inactive: [5] 91 % of control | [6] 93 % of control | [7] 97 % of control | [8] 95 % of control | [9] 98 % of control | [10] 88 % of control

CC(NC(N)=O)C(=O)O (stereo not drawn)
inactive: dose: 100.0 mg/kg/injection, schedule: Q04DX002 (ip), vehicle: saline 89 % of control | dose: 200.0 mg/kg/injection, schedule: Q04DX002 (ip), vehicle: saline 104 % of control | dose: 400.0 mg/kg/injection, schedule: Q04DX002 (ip), vehicle: saline 93 % of control

CCCC1(CN2c3ccccc3Sc3ccc(Cl)cc32)CCN(CC)C1 (stereo not drawn)
inactive: [1] 90 % of control

COc1cc(C=Nc2ccc(-c3nc(C)sc3C)cc2)ccc1N(CCOS(C)(=O)=O)CCOS(C)(=O)=O
inactive: dose: 50.0 mg/kg/injection, schedule: Q01DX009 (ip), vehicle: saline 111 % of control | [11] 110 % of control | dose: 100.0 mg/kg/injection, schedule: Q01DX009 (ip), vehicle: saline 121 % of control | [13] 105 % of control | dose: 200.0 mg/kg/injection, schedule: Q01DX009 (ip), vehicle: saline 116 % of control

CN=C1CN(O)C(c2ccccc2)=c2cc(Cl)ccc2=N1
inactive: dose: 25.0 mg/kg/injection, schedule: Q01DX009 (ip), vehicle: acetone 96 % of control | dose: 25.0 mg/kg/injection, schedule: Q04DX003 (ip), vehicle: saline 97 % of control | dose: 50.0 mg/kg/injection, schedule: Q01DX009 (ip), vehicle: acetone 90 % of control | dose: 50.0 mg/kg/injection, schedule: Q04DX003 (ip), vehicle: saline 97 % of control | [11] 92 % of control | dose: 100.0 mg/kg/injection, schedule: Q01DX009 (ip), vehicle: acetone 102 % of control | [1] 92 % of control | [13] 96 % of control | dose: 200.0 mg/kg/injection, schedule: Q01DX009 (ip), vehicle: acetone 97 % of control | [2] 97 % of control

CSCSCC(CO)NS(=O)(=O)c1ccc(C)cc1 (stereo not drawn)
inactive: [4] 107 % of control | [12] 103 % of control | dose: 200.0 mg/kg/injection, schedule: Q01DX009 (ip), vehicle: saline with Tween-80 109 % of control | [14] 97 % of control | dose: 400.0 mg/kg/injection, schedule: Q01DX009 (ip), vehicle: saline with Tween-80 98 % of control | dose: 400.0 mg/kg/injection, schedule: Q04DX003 (ip), vehicle: saline with Tween-80 102 % of control

Cc1cccc(C)c1NC(=O)NC(C)C
inactive: [5] 106 % of control | [6] 93 % of control | [7] 94 % of control | [8] 94 % of control | [9] 99 % of control | [10] 93 % of control
